Where two headings read alike, the source gives them in different places.
What was measured:
[1] = Inhibition of cells growth by colorimetric (SRB) assay, HMEC1; conditions: human, HMEC1 cells, 48 hours exposure
Description: (§1) The finality of these assays is to interrupt the growth of a “in vitro” tumor cell culture by means a continued exhibition of the cells to the sample to be testing.
(§2) This form of the assay employs 96 well cell culture microplates of 9 mm diameter (Faircloth, 1988; Mosmann, 1983). Most of the cell lines are obtained from American Type Culture Collection (ATCC) derived from different human cancer types.
(§3) Cells are maintained in RPMI 1640 10% FBS, supplemented with 0.1 g/l penicillin and 0.1 g/l streptomycin sulphate and then incubated at 37° C., 5% CO2 and 98% humidity. For the experiments, cells were harvested from subconfluent cultures using trypsin and resuspended in fresh medium before plating.
(§4) Cells are seeded in 96 well microtiter plates, at 5×10^3 cells per well in aliquots of 195 μl medium, and they are allowed to attach to the plate surface by growing in drug free medium for 18 hours. Afterward, samples are added in aliquots of 5 μl in a ranging from 10 to 10^−8 μg/ml, dissolved in DMSO/EtOH/PBS (0.5:0.5:99). After 48 hours exposure, the antitumor effect are measured by the SRB methodology: cells are fixed by adding 50 μl of cold 50% (wt/vol) trichloroacetic acid (TCA) and incubating for 60 minutes at 4° C. Plates are washed with deionized water and dried. One hundred μl of SRB solution (0.4% wt/vol in 1% acetic acid) is added to each microtiter well and incubated for 10 minutes at room temperature. Unbound SRB is removed by washing with 1% acetic acid. Plates are air dried and bound stain is solubilized with Tris buffer. Optical densities are read on a automated spectrophotometric plate reader at a single wavelength of 490 nm.
(§5) The values for mean +/−SD of data from triplicate wells are calculated. Some parameters for cellular responses can be calculated: GI=growth inhibition, TGI=total growth inhibition (cytostatic effect) and LC=cell killing (cytotoxic effect).

HMEC1 = assay: as above; conditions: for GI50: Homo sapiens, HMEC-1, 48 h; for TGI H-MEC-1 / H-MEC-1 TGI: SRB assay, 48 hours exposure, in M (unit assumed)
Description: as §1, §2, §3, §4, §5

HT-29 = assay: Inhibition of cells growth by colorimetric (SRB) assay, HT-29; conditions: for GI50 / CC50: Homo sapiens, HT-29, 48 h; for TGI HT-29 / HT-29 TGI: SRB assay, 48 hours exposure
In short: (§6)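 Human tumour cells in RPMI 1640 with 10% FBS were seeded at 5×10^3 cells/well, allowed to attach for 18 h, then exposed to samples at 10 to 10^−8 μg/ml for 48 h. Growth was measured by SRB staining after TCA fixation, with absorbance read at 490 nm in triplicate wells.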

A-549 = assay: Inhibition of cells growth by colorimetric (SRB) assay, A-549; conditions: for GI50 / CC50: Homo sapiens, A549, 48 h; for TGI A-549 / A-549 TGI: SRB assay, 48 hours exposure
In short: as §6

[2] = read-out: GI50 H-MEC-1, SRB assay, 48 hours exposure
[3] = read-out: GI50 HT-29, SRB assay, 48 hours exposure
[4] = read-out: LC50 HT-29, SRB assay, 48 hours exposure
[5] = read-out: GI50 A-549, SRB assay, 48 hours exposure
[6] = read-out: LC50 A-549, SRB assay, 48 hours exposure
[7] = read-out: HT-29 GI50, SRB assay, 48 hours exposure
[8] = read-out: HT-29 LC50, SRB assay, 48 hours exposure
[9] = read-out: A-549 LC50, SRB assay, 48 hours exposure
[10] = read-out: H-MEC-1 GI50, SRB assay, 48 hours exposure
[11] = read-out: A-549 GI50, SRB assay, 48 hours exposure

With `CSc1nccc(-c2c3c(Cl)ccnc3n3c(SC)nccc23)n1` [Compound 84] the CC50 at 48 h ([1]; LC50 H-MEC-1, SRB assay) was 26.7 µM, the GI50 (HMEC1; [2]) was 26.7 µM and the “TGI H-MEC-1” value (HMEC1) was 2.67E−05. For the same compound, the GI50 (HT-29; [3]) was 26.7 µM, the CC50 (HT-29; [4]) was 26.7 µM and the “TGI HT-29” value (HT-29) was 2.67E−05. For the same compound, the GI50 (A-549; [5]) was 26.7 µM, the CC50 (A-549; [6]) was 26.7 µM and the “TGI A-549” value (A-549) was 2.67E−05.
In the case of `COc1cccc(-c2c3cccnc3n3c(N)nccc23)c1.Cl` [Compound 67], the CC50 at 48 h ([1]; LC50 H-MEC-1, SRB assay) is reported as 30.6 µM, the GI50 (HMEC1; [2]) is reported as 30.6 µM and the “TGI H-MEC-1” value (HMEC1) is reported as 3.06E−05. For the same compound, the GI50 (HT-29; [7]) was 30.6 µM, the CC50 (HT-29; [8]) was 30.6 µM and the “HT-29 TGI” value (HT-29) was 3.06E−05. The CC50 (A-549; [9]) was 30.6 µM, the GI50 (A-549; [5]) was 30.6 µM and the “A-549 TGI” value (A-549) was 3.06E−05.
In the case of `Nc1nccc2c(-c3ccccc3)c3cccnc3n12` [Compound 63], the CC50 at 48 h ([1]; H-MEC-1 LC50, SRB assay) is reported as at least 38.4 µM, the GI50 (HMEC1; [10]) is reported as at least 38.4 µM and the “H-MEC-1 TGI” value (HMEC1) is reported as 3.84E−05. For the same compound, the GI50 (HT-29; [7]) was at least 38.4 µM, the CC50 (HT-29; [8]) was at least 38.4 µM and the “HT-29 TGI” value (HT-29) was 3.84E−05. The GI50 (A-549; [11]) was at least 38.4 µM, the CC50 (A-549; [9]) was at least 38.4 µM and the “A-549 TGI” value (A-549) was 3.84E−05.
In the case of `CSc1nccc(-c2c3c(OCc4ccccc4)ccnc3n3c(N)nccc23)n1` [Compound 94], the CC50 at 48 h ([1]; LC50 H-MEC-1, SRB assay) is reported as 24.1 µM, the GI50 (HMEC1; [2]) is reported as 9.19 µM and the “TGI H-MEC-1” value (HMEC1) is reported as 1.97E−05. The GI50 (HT-29; [3]) was 24.1 µM, the CC50 (HT-29; [4]) was 24.1 µM and the “TGI HT-29” value (HT-29) was 2.41E−05. The GI50 (A-549; [5]) was 24.1 µM, the CC50 (A-549; [6]) was 24.1 µM and the “TGI A-549” value (A-549) was 2.41E−05.
With `CSc1nccc2c(-c3cccc([N+](=O)[O-])c3)c3cccnc3n12` [Compound 59] the CC50 at 48 h ([1]; H-MEC-1 LC50, SRB assay) was 29.7 µM, the GI50 (HMEC1; [10]) was 29.7 µM and the “H-MEC-1 TGI” value (HMEC1) was 2.97E−05. For the same compound, the GI50 (HT-29; [7]) was 29.7 µM, the CC50 (HT-29; [8]) was 29.7 µM and the “HT-29 TGI” value (HT-29) was 2.97E−05. The GI50 (A-549; [11]) was 29.7 µM, the CC50 (A-549; [9]) was 29.7 µM and the “A-549 TGI” value (A-549) was 2.97E−05.
